Measurements published in ChEMBL document CHEMBL1151993, “Oxylipins from Dracontium loretense” (J Nat Prod, 2009).
Calls of active or inactive are those of the source. No cut-off for these calls is given here.

Legend:
[1] = system: PBMC; test: Cytotoxicity in human PBMC cells at 100 uM after 48 hrs; assay type: cell-based
[2] = system: PBMC; test: Immunostimulatory activity in human PBMC assessed as reduction in cell proliferation at 100 uM after 48 hrs by [3H]thymidine incorporation assay relative to control; assay type: functional, cell-based
[3] = system: PBMC; test: Immunostimulatory activity in human PBMC assessed as cell activation at 10 uM after 48 hrs by [3H]thymidine incorporation assay relative to control; assay type: functional, cell-based

Compound: CCCCCCCC[C@@H](O)[C@H](O)/C=C/C(O)CCCCC(=O)O (relative stereo)
- Activity [1]: Toxic
- Activity [2]: inactive

Compound: CCCCCCCC[C@H](O)[C@@H](O)[C@H](O)/C=C\CCCCC(=O)O (relative stereo)
- Activity [1]: Toxic
- Activity [2]: inactive

Compound: CC/C=C\C/C=C\[C@@H](O)[C@H](O)[C@@H](O)CCCCCCCC(=O)O (relative stereo)
- Activity [1]: Toxic
- Activity [2]: inactive

Compound: CCCCCCCC[C@H](O)[C@H](O)/C=C/C(O)CCCCC(=O)O (relative stereo)
- Activity [3]: Active
- Activity [1]: Toxic
- Activity [2]: inactive
